Read-outs that look alike come from different tables or passages of the source.

In the assay the target is T1, E. coli DdlB enzyme (D-alanine:D-alanine ligase) (Escherichia coli, UniProt P07862).
T1 construct: made in house; host or cells: E. coli
Put plainly: biochemical. As to conditions: read-out: DdlB RA; for remaining activity at 1900 µM: tested concentration 1.9 mM; for remaining activity at 2000 µM: tested concentration 2.0 mM; for remaining activity at 2100 µM: tested concentration 2.1 mM; for remaining activity at 2600 µM: tested concentration 2.6 mM; for remaining activity at 2200 µM: tested concentration 2.2 mM; for remaining activity at 3300 µM: tested concentration 3.3 mM; for remaining activity at 2300 µM: tested concentration 2.3 mM; for remaining activity at 1700 µM: tested concentration 1.7 mM; for remaining activity at 2400 µM: tested concentration 2.4 mM; for remaining activity at 1800 µM: tested concentration 1.8 mM; for remaining activity at 3000 µM: tested concentration 3.0 mM; for remaining activity at 2500 µM: tested concentration 2.5 mM.

The mark [1] stands for this setting: residual activity of DdlB, fragment library screening.

Turning to `Cc1cc2nc(COC(=O)C(C)(C)C)cc(=O)n2o1` [Compound G265-0759], the remaining activity at 1900 µM was 97%. As to `CCOc1c(Nc2ccc(OC)cc2)c(=O)c1=O` [Compound G317-0026], the remaining activity at 2000 µM was 93%. With `CCOc1c(Nc2ccc(F)cc2)c(=O)c1=O` [Compound G317-0061], the remaining activity at 2100 µM turned out to be 96%.

`O=c1c(O)c(NCc2ccco2)c1=O` [Compound G317-0464]: the remaining activity at 2600 µM came to 89%. In the case of `O=c1c(O)c(N2CCCCCC2)c1=O` [Compound G317-0465], the remaining activity at 2600 µM amounted to 92%. In the case of `O=c1c(O)c(N2CCN(c3ccccc3)CC2)c1=O` [Compound G317-0478], the remaining activity at 1900 µM is 96%.

Turning to `O=c1c(O)c(N2CCc3ccccc3C2)c1=O` [Compound G317-0491], the remaining activity at 2200 µM was determined as 90%.

As to `O=c1c(O)c(NC2CC2)c1=O` [Compound G317-0511], the remaining activity at 3300 µM worked out at 90%. On to `O=c1c(O)c(NCCc2ccccc2)c1=O` [Compound G317-0516], for which the remaining activity at 2300 µM worked out at 92%. For `CC(C)c1ccc(Nc2c(O)c(=O)c2=O)cc1` [Compound G317-0548], the remaining activity at 2200 µM came to 91%. As to `Cc1cc(Nc2c(O)c(=O)c2=O)no1` [Compound G317-0569], the remaining activity at 2600 µM was 93%. For `O=c1c(O)c(Nc2ccc(CN3CCCCC3)cc2)c1=O` [Compound G317-0765], the remaining activity at 1700 µM was 92%.

With `CCOC(=O)c1ccc2oc(=O)[nH]c2c1` [Compound G373-0551], the remaining activity at 2400 µM worked out at 92%.

With `Cn1cnc(S(=O)(=O)NC2CCCCCCC2)c1` [Compound G404-0427], the remaining activity at 2200 µM (residual activity) was found to be 91%.

In the case of `O=C(Nc1ccccc1)Nc1ccc2[nH]c(=O)oc2c1` [Compound G434-0096], the remaining activity at 1900 µM stood at 75%. On to `O=C(Nc1ccc2[nH]c(=O)oc2c1)c1ccc(F)cc1` [Compound G434-0256], for which the remaining activity at 1800 µM turned out to be 74%. Turning to `CCC(=O)Nc1ccc2[nH]c(=O)oc2c1` [Compound G434-0836], the remaining activity at 2400 µM is 85%. Turning to `CCS(=O)(=O)N1CCCc2cc(NC(C)=O)ccc21` [Compound G504-0524], the remaining activity at 1800 µM (residual activity) worked out at 95%.

Take `O=C(NC1CC(=O)N(c2cccc(F)c2)C1)C1CC1` (stereo not shown) [Compound G856-7454]: the remaining activity at 2300 µM came to 91%. Consider `OB(O)c1ccc2[nH]ncc2c1` [Compound H024-0113], for which, under “tested concentration 3.1 mM”, the remaining activity at 3100 µM was found to be 93%. Take `CN(C)Cc1cc2cc(O)c(-c3cccnc3)cc2n1C` [Compound H027-0236C]: the remaining activity at 1600 µM (residual activity, tested concentration 1.6 mM) turned out to be 84%. In the case of `CCc1cc(C2CCCN2S(=O)(=O)CC)on1` (stereo not shown) [Compound J005-1008], the remaining activity at 1900 µM came out at 98%.

As to `O=C(O)C1=CC(c2cc(F)cc(F)c2)n2nnnc2N1` (stereo not shown) [Compound J043-0061], where the note is “residual activity”, the remaining activity at 2100 µM amounted to 101%.

Regarding `COc1ccc(CNc2ccccc2C(=O)O)cc1` [Compound K783-0843], the remaining activity at 1900 µM (residual activity) was 101%. For the molecule `O=C(O)c1ccccc1NCc1ccccc1Cl` [Compound K783-0963], the remaining activity at 1900 µM (residual activity) worked out at 95%. As to `O=C1CC(C(=O)O)c2ccccc2N1` (stereo not shown) [Compound K784-1648], the remaining activity at 2600 µM came out at 87%. `O=C(O)c1ccccc1C(=O)NCc1ccccc1` [Compound K786-0839]: the remaining activity at 2000 µM (fragment library screening) stood at 98%. Regarding `O=c1[nH]c2ccc(S(=O)(=O)N3CCCCC3)cc2o1` [Compound K893-0198], the remaining activity at 1800 µM came to 100%. In the case of `CCOc1c(NC2CCCCC2)c(=O)c1=O` [Compound K906-2368], the remaining activity at 2200 µM came to 76%. Turning to `CCOc1c(N2CCC(C)CC2)c(=O)c1=O` [Compound K906-2369], the remaining activity at 2200 µM came to 71%. Turning to `O=c1c(N2CCCC2)c(N2CCCC2)c1=O` [Compound K906-4052], the remaining activity at 2300 µM is 98%. Take `Cc1nc2ccccc2c(O)c1S(=O)(=O)O` [Compound L150-1119]: the remaining activity at 2100 µM amounted to 90%.

Turning to `O=C(Cc1c[nH]c2ncccc12)NCc1ccccc1` [Compound M508-0504], under “residual activity”, the remaining activity at 1900 µM worked out at 82%. As for `CC(C)CNC(=O)Cc1c[nH]c2ncccc12` [Compound M508-0619], the remaining activity at 2200 µM (residual activity) came to 94%. Consider `CCCN(C)C(=O)Cc1c[nH]c2ncccc12` [Compound M508-0627], for which, under “residual activity”, the remaining activity at 2200 µM came to 86%. As to `CNC(=O)NCCc1c[nH]c2ncccc12` [Compound M509-0295], the remaining activity at 2300 µM (residual activity) amounted to 80%. On to `Cc1ccc(S(=O)(=O)N2CCc3[nH]cnc3C2)cc1` [Compound M512-0400], for which, for the setting “residual activity”, the remaining activity at 2000 µM turned out to be 94%. With `Cc1nnc(C2CCCCN2C(=O)NC2CCCCC2)[nH]1` (stereo not shown) [Compound M754-0764], the remaining activity at 1700 µM (residual activity) came to 77%. In the case of `Cc1cccc(C(=O)N2CCCCC2c2nnc(C)[nH]2)c1` (stereo not shown) [Compound M754-0809], the remaining activity at 1800 µM (residual activity) turned out to be 89%. As to `O=C(c1ccco1)N1CCCCC1c1nnc(C2CC2)[nH]1` (stereo not shown) [Compound M754-1192], the remaining activity at 1700 µM (residual activity) came out at 90%. For the molecule `Cc1cccc(Nc2ncccc2S(N)(=O)=O)c1` [Compound M784-3114], the remaining activity at 1900 µM worked out at 94%. For `Cc1ccc(Nc2ncccc2S(N)(=O)=O)cc1` [Compound M784-3115], the remaining activity at 1900 µM came to 85%. Consider `CCNc1cc(N2CCC(CCC(=O)O)CC2)ncn1` [Compound P207-8919], for which, where the note is “fragment library screening”, the remaining activity at 1800 µM came out at 83%. Turning to `Cn1ncc(N2CCC[C@@H](C(=O)O)C2)cc1=O` [Compound P207-8929], the remaining activity at 2100 µM was 92%. In the case of `Cc1ccc2cc(CCC(=O)O)c(O)nc2c1` [Compound P207-8939], the remaining activity at 2600 µM was determined as 93%.

As for `Cn1nc(C(=O)O)c2c1CCOC2` [Compound P207-8979], the remaining activity at 3000 µM under setting [1] is 88%.

With `CN1CCC(Oc2ncccc2C(=O)O)CC1` [Compound P391-0905], the remaining activity at 2100 µM was 92%. Take `Cc1cccc(Cc2n[nH]c(CC(=O)NC3CCCC3)n2)c1` [Compound P496-1655]: the remaining activity at 1700 µM was 97%. On to `O=C(NCc1c[nH]c2ncccc12)C1CCC1` [Compound P610-0073], for which the remaining activity at 2200 µM (residual activity) turned out to be 90%. With `Cc1ccccc1NS(=O)(=O)c1c[nH]c2ncccc12` [Compound P633-0038], the remaining activity at 1700 µM (residual activity) came to 89%. As for `O=S(=O)(c1c[nH]c2ncccc12)N1CCc2ccccc21` [Compound P633-0115], the remaining activity at 1700 µM turned out to be 83%. For `CCn1cc(S(=O)(=O)NC2CCCC2)c2cccnc21` [Compound P633-0557F], where the note is “residual activity”, the remaining activity at 2000 µM is 89%.

Turning to `O=C(C1CCCN(C(=O)C2CCC2)C1)N1CCOCC1` (stereo not shown) [Compound P773-6398], the remaining activity at 2000 µM (residual activity) was 98%.

On to `O=C(Nc1nnc[nH]1)C1CCC1` [Compound P774-4606], for which the remaining activity at 3000 µM under setting [1] stood at 94%.

With `CCn1cnnc1CC1CCNC1` (stereo not shown) [Compound P936-0678], the remaining activity at 3300 µM under setting [1] is 90%.

For the molecule `CC(=O)N1CCCC(c2nn(C)c(=O)n2C2CCCC2)C1` (stereo not shown) [Compound P940-4223], for the setting “residual activity”, the remaining activity at 2100 µM is 96%. With `O=C(Cc1ccccc1)NCC1CCOCC1` [Compound P970-0162], the remaining activity at 2600 µM worked out at 92%. On to `CC1(CNC(=O)c2ccccc2Cl)CCOCC1` [Compound P970-0504], for which the remaining activity at 2200 µM (residual activity) turned out to be 94%. In the case of `Cc1ccc(C(=O)N(C)CC2(C)CCOCC2)cn1` [Compound P970-1095], the remaining activity at 2300 µM (residual activity) came to 94%.

As to `NS(=O)(=O)c1cccc2cccnc12` [Compound R005-0042], the remaining activity at 2400 µM amounted to 88%.

As for `O=C(O)c1cc(-c2ccc3c(c2)OCO3)on1` [Compound R314-0020], the remaining activity at 2100 µM (residual activity) amounted to 114%. With `CCOc1ncccc1CN` [Compound S055-1650], the remaining activity at 3300 µM under setting [1] is 89%. Consider `Cn1nccc1C(=O)N1CCC(Nc2cccnc2)C1` (stereo not shown) [Compound S059-0159], for which the remaining activity at 2200 µM (residual activity) was determined as 85%. Turning to `CCNC(=O)N1CCC(c2noc(-c3ccccc3)n2)C1` (stereo not shown) [Compound S069-0392], for the setting “residual activity”, the remaining activity at 1900 µM turned out to be 94%. Regarding `c1cnc(-c2nc(C3CCNC3)no2)cn1` (stereo not shown) [Compound S069-3207], the remaining activity at 1700 µM is 95%. In the case of `CN(CC1CCOC1)C(=O)NC1CCCCC1` (stereo not shown) [Compound S213-1594], the remaining activity at 2500 µM came out at 91%. On to `Cc1ccc(F)cc1S(=O)(=O)N(C)CC1CCOC1` (stereo not shown) [Compound S213-1645], for which the remaining activity at 2100 µM (residual activity) came to 102%. Still for that read-out and setting: in the case of `Cc1cc(C)cc(NC(=O)N(C)CC2CCOC2)c1` (stereo not shown) [Compound S213-1693] it was 96%. For `Cc1ccc(C)c(C(=O)N(C)CC2CCOC2)c1` (stereo not shown) [Compound S213-1736], the remaining activity at 2400 µM came out at 99%. `CN(CC1CCOC1)C(=O)C1CC1` (stereo not shown) [Compound S213-1842]: the remaining activity at 3000 µM under setting [1] was determined as 91%. For the molecule `CCc1nc(N2CCOCC2)ncc1C(=O)O` [Compound S272-0074], the remaining activity at 2500 µM stood at 91%. As to `CCc1nc(NCc2ccncc2)ncc1C(=O)O` [Compound S272-1779], the remaining activity at 1900 µM (fragment library screening) came to 93%. For `NCCc1noc(C2CC2)n1` [Compound S399-0482], the remaining activity at 2600 µM under setting [1] is 95%.

The values are drawn from publication PMC9718554, “Discovery of a fragment hit compound targeting D-Ala:D-Ala ligase of bacterial peptidoglycan biosynthesis” (Journal of Enzyme Inhibition and Medicinal Chemistry, 2022).
